Measurements reported in patent US9980925B2, “Xanthohumol in antiarrythmic applications” (University of South Carolina, priority 2016, dated 2018).
“Also recorded” adds a separate entry of the source. One block for each compound: values may come before it.

How the values were obtained:
Type in all cases: cell-based
[1] = tested on: rat ventricular cardiomyocyte; experiment: ROS production from DCF fluorescence in ventricular myocytes incubated with H2DCFDA
Experimental: A Noran Odyssey XL rapid two-dimensional laser-scanning confocal microscope (Noran Instruments, Madison, Wis.; Zeiss Axiovert TV135) was used with a x63 water-immersion objective, λex=488 nm and λem>515 nm to measure kinetics and subcellular distribution of fluorescence signals according to known protocols. Ca^2+ was imaged after 20- to 30-minute incubation with fluo-4 AM (2 μM). ROS was measured by incubating cells with H2DCFDA (5 μM for 30 minutes), which is cleaved by esterases to form less permeant 2′,7′-dichlorodihydrofluorescein that is then oxidized by free radical compounds to fluorescent 2′,7′-dichlorofluorescein (DCF) as described previously. Fluorescence images of ROS were recorded at low fluorescence intensity and frame rate (about 1 Hz) and required considerable signal averaging (FIG. 1).
Measurements of ROS were also carried out using the oxygen-radical sensitive dye 2′,7′-dichlorofluorescein (DCF) (5 μM). The effect of the xanthohumol was compared with the antioxidant N-acetyl cysteine (10 mM).
ROS production was evaluated from the rate of increase in DCF fluorescence in ventricular myocytes incubated with H2DCFDA.

rat ventricular myocytes [2] = experiment: Global whole-cell Ca2+ transients in field-stimulated cells (Fluo-4 AM); conditions: for increase in Ca2+-transient peaks following a 30-second train of high-frequency stimulation: 0.5 to 2 Hz
Experimental: (§1) Whole-cell Ca^2+ transients occurring spontaneously or evoked electrically by field stimulation or voltage-clamp depolarizations or by rapid application of caffeine (2.5 mM for 0.5 or 1 second) were measured fluorometrically after incubating the cells in fluo-4 AM (2 μM) for 30 minutes. The dye was excited by 460 nm light from a LED-based illuminator (Prismatix, Modiin (lite, Israel), and Ca^2+-dependent fluorescent light (>500 nm) was detected with a photomultiplier tube that was placed behind a moveable, adjustable diaphragm, which served to limit the area of detection to the voltage-clamped cell. The cellular fluorescence signals (ΔF/F0) were normalized by dividing the changes in whole-cell fluorescence (ΔF) with the baseline fluorescence (F0).
Effects of xanthohumol on cardiac Ca^2+ signaling were evaluated in enzymatically dispersed ventricular myocytes that were subjected to field stimulation or voltage-clamp depolarizations in the whole-cell, perforated patch configuration to activate Ca^2+ current (ICa) and SR Ca^2+ release.
(§2) The cells were incubated with fluo-4 AM for 30 minutes to allow fluorometric imaging of Ca^2+ sparks and measurements of whole-cell Ca^2+ transients. Rapid perfusion of caffeine was used to release, and SR Ca^2+ stores and assesses their size according to known methodology. Xanthohumol was tested in the range from 5 nM to 1 μM and was used routinely either with acute application of 50 nM drug or by incubation of cells in 10 nM xanthohumol-containing solutions for 30 minutes. All cells were first perfused with Tyrode's solution (137 mM NaCl, 10 mM HEPES, 10 mM glucose, 5.4 mM KCl, 2 mM CaCl, 1 mM MgCl) and thereafter were subjected to the following in the absence or presence of xanthohumol:
(§3) Each experimental condition was typically sustained for 2-8 minutes to achieve equilibration. To avoid cell damage due to continuous light exposure, recordings were generally performed for intervals of only 5-10 seconds, but repeated every minute. Cells challenged with isoproterenol or low K^+ typically developed more abundant spontaneous Ca^2+ sparks and interdispersed irregular whole-cell Ca^2+ transients, especially in the absence of xanthohumol.

rat ventricular myocytes [3] = experiment: SR Ca2+ content and refilling after caffeine-induced Ca2+ release
Experimental: as §1, §2
The aim of this set of experiments was to examine the effect of the xanthohumol on the SR Ca^2+ content and its recirculation. FIG. 14 compares the magnitude of Ca^2+ transients in electrically stimulated cells paced at 0.5 Hz to Ca^2+ transient that was produced when one stimulus was replaced by a rapid application of 2.5 mM caffeine for 1 second. […] It was concluded that xanthohumol suppresses slightly the Ca^2+ content of the SR, but this effect was fully reversed by isoproterenol.
To probe the effect of xanthohumol on recirculation of SR Ca^2+ and its refilling following depletion of its content by caffeine, the rate of recovery of electrically triggered Ca^2+ transients back to control levels was quantified as a measure of refilling of the SR store. […].

[4] = target: T1, L-type Ca^2+ current (ICa) (Rattus norvegicus, UniProt P22002); experiment: Voltage-clamp recording of L-type Ca2+ current (perforated patch)
T1 construct: enzymatically dispersed ventricular myocytes that were subjected to field stimulation or voltage-clamp depolarizations; endogenous in cells; host or cells: freshly isolated ventricular cardiomyocytes of male Sprague-Dawley rats
Experimental: (§4) Cells were voltage-clamped in the whole-cell perforated patch configuration at a holding potential of −50 or −60 mV and depolarized to +10 mV to activate L-type Ca^2+ current (ICa) and Ca^2+-induced Ca^2+ release using a Dagan amplifier and pClamp software (Clampex 10.2). Borosilicate patch pipettes were prepared using a horizontal pipette puller (Model P-87; Sutter Instruments, Novato, Calif.). […] Rapid applications of 2.5 mM caffeine and pharmacological interventions were used to elucidate the action mechanism of xanthohumol. Most experiments were performed at 35° C. Voltage-clamp experiments testing dose response were performed at both 25° C. and 35° C.
The effects of xanthohumol on Ca^2+ signaling parameters was compared using concentrations ranging between 1 nM and 1 μM. The experiments were carried out under perforated patch conditions both at room temperature and 35° C. Ventricular myocytes incubated in fluo-4 AM were activated by 100-ms depolarizing pulses from −50 to 10 m versus at room temperature. Ca^2+ current was suppressed by xanthohumol when the concentrations of the drug exceeded 100 nM (FIG. 16, panel A). […] At room temperatures, xanthohumol also slowed the kinetics of relaxation of Ca^2+ transients, as it suppressed its peak, at concentrations exceeding 50 nM (FIG. 16, panels B and C; P<0.001). […] It was concluded that higher metabolic states of myocytes, induced by higher temperatures and adrenergic stimulation, reduce the inhibitory effects of xanthohumol on Ca^2+ transients.

rat ventricular myocytes [5] = experiment: Ca2+ spark imaging (Fluo-4 epifluorescence)
Experimental: Ca^2+ sparks (Fluo-4, λex=488 nm) were also measured with the LEICA DMI6000 microscope in the epifluorescence mode but now operating at 60-100 frames/s (FIG. 3, FIG. 4 (panels A-C); FIG. 5, FIG. 6, and FIG. 7); the average baseline fluorescence intensity (F0) was calculated from several frames without indication of spontaneous Ca^2+ signals in the form of sparks or waves. Images were filtered by 2 pixel×2 pixel averaging. The amplitudes of the Ca^2+-dependent cellular fluorescence signals were quantified as ΔF/F0, where ΔF is the change in fluorescence measured within selected regions of interest. The time constant of decay of Ca^2+ transients (Tau) was estimated by approximation with a single exponential.
as §2, §3

rat ventricular myocytes [6] = experiment: Ca2+ transients in voltage-clamped cells (Fluo-4 AM)
Experimental: as §4, §1
The effects of xanthohumol on Ca^2+ signaling parameters was compared using concentrations ranging between 1 nM and 1 μM. The experiments were carried out under perforated patch conditions both at room temperature and 35° C. Ventricular myocytes incubated in fluo-4 AM were activated by 100-ms depolarizing pulses from −50 to 10 m versus at room temperature. Ca^2+ current was suppressed by xanthohumol when the concentrations of the drug exceeded 100 nM (FIG. 16, panel A). […] At room temperatures, xanthohumol also slowed the kinetics of relaxation of Ca^2+ transients, as it suppressed its peak, at concentrations exceeding 50 nM (FIG. 16, panels B and C; P<0.001). […]

[7] = isoproterenol 100 nM, 0.75 Hz, 35° C.
[8] = 50-100 nM, 35° C., field-stimulated
[9] = xanthohumol 50-300 nM co-applied with isoproterenol

T1 sequence (P22002 whole entry, other chains not shown): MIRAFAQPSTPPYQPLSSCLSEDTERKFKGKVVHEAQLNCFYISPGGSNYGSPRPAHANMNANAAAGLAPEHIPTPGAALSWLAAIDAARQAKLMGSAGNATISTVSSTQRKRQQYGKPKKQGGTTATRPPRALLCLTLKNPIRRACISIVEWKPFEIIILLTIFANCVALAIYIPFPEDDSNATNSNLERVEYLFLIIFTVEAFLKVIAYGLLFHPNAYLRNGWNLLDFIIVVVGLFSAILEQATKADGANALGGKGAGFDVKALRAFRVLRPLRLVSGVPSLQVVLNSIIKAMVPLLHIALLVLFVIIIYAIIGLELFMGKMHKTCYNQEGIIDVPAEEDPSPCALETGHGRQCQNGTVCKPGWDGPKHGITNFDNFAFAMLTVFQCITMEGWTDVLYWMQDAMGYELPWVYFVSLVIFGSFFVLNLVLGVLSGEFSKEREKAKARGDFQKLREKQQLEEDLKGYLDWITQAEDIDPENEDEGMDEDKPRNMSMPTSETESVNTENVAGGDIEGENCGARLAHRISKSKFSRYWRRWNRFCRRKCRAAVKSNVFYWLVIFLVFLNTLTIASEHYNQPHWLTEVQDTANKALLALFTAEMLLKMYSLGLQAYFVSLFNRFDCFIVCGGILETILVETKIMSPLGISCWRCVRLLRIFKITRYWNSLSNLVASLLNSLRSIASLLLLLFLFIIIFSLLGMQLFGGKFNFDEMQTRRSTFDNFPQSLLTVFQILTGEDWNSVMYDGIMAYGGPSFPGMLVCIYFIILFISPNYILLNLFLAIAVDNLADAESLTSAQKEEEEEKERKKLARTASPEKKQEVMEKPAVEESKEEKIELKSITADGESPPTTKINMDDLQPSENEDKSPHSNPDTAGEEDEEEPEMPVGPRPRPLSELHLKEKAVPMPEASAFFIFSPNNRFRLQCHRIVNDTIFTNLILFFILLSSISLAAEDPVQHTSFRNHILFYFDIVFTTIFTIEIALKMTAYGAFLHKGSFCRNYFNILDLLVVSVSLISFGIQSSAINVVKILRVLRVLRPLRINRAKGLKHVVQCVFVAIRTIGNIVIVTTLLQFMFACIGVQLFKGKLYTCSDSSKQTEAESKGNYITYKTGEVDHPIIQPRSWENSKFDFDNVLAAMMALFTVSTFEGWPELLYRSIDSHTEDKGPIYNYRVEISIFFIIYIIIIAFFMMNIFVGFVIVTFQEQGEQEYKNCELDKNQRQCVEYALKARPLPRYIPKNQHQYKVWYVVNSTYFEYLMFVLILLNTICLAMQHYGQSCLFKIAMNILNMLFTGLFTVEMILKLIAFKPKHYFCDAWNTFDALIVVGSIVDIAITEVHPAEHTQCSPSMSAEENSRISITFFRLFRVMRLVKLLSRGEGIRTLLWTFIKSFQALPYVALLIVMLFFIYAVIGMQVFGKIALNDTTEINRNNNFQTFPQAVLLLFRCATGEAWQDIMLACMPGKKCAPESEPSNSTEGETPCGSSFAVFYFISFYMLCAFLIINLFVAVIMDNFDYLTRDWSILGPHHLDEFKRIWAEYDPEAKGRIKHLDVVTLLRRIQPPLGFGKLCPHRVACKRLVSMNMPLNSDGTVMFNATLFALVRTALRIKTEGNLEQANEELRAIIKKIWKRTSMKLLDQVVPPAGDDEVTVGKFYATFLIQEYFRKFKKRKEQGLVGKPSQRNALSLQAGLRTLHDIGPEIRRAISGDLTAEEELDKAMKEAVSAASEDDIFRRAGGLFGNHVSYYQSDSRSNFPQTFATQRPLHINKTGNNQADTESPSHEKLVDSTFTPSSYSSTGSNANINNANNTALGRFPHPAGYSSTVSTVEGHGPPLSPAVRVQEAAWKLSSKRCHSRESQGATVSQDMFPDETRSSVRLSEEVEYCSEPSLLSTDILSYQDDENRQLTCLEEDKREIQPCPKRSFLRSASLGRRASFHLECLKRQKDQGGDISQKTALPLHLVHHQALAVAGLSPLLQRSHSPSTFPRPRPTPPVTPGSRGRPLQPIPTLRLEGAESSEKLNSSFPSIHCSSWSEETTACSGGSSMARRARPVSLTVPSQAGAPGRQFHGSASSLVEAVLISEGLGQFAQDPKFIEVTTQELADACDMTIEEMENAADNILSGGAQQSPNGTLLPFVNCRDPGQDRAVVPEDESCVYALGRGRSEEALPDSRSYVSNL
T1 sequence (P54290 25-944 partner limits assumed, other chains not shown): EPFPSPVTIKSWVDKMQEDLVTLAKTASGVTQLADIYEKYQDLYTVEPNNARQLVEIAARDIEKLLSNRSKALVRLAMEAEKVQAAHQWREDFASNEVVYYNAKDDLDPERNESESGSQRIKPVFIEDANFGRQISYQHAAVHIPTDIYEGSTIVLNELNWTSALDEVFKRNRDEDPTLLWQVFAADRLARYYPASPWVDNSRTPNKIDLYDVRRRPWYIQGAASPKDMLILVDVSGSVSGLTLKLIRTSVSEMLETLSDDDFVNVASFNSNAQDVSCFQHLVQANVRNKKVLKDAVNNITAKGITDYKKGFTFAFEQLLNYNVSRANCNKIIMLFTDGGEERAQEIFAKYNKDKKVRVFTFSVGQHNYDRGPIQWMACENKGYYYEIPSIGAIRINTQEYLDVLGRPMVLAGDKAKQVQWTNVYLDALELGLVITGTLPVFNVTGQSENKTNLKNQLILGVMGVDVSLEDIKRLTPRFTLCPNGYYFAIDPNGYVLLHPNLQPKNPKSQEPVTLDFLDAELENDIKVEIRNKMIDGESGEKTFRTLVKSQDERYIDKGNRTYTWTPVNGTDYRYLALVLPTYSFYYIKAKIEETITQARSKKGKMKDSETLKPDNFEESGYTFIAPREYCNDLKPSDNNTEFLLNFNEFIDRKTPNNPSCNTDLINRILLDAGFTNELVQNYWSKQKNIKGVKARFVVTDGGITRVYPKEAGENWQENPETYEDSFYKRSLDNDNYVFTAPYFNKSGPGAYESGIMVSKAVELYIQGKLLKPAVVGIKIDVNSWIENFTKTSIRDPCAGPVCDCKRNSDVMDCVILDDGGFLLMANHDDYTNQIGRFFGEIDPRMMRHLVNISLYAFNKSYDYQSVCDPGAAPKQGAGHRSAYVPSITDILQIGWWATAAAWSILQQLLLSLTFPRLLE
T1 sequence (P54290 945-1091 partner limits assumed, other chains not shown): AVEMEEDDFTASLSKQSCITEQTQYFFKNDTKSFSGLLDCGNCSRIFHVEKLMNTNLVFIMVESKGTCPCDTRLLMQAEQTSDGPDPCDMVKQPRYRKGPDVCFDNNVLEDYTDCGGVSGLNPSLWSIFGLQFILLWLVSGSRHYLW

SMILES: CC(=O)N[C@@H](CS)C(=O)O [N-acetyl cysteine, reference compound]
low K+-induced increase of the DCF signal ([1]; N-acetyl cysteine 10 mM, low K+): suppressed | effect on DCF signal after washout ([1]; after N-acetyl cysteine 10 mM): washout rapidly reversed the DCF signal

SMILES: CC(C)NCC(O)c1ccc(O)c(O)c1 (stereo not drawn) [isoproterenol, reference compound]
enhancement of rate of relaxation of Ca2+ transients (rat ventricular myocytes [2]; [7]): about 30% | increase in frequency of spontaneous events (rat ventricular myocytes [2]; [7]): 3- to 4 fold | increase in amplitude of the Ca2+ transients (rat ventricular myocytes [2]; isoproterenol 100 nM, electrical stimulation 0.75 Hz, 35° C., P=0.0464): 50% | fraction of the caffeine-releasable Ca2+ pool released by electrical stimulation (rat ventricular myocytes [3]; isoproterenol 100 nM, 0.5 Hz, 35° C.): enhanced | increase of peak of the triggered Ca2+ transient (rat ventricular myocytes [3]; isoproterenol 100 nM, paced at 0.5 Hz): 74.12%

effect on ICa ([4]; 10 nM, room temperature): little or no effect | Ca2+ current ([4]; 100-300 nM, 35° C.): significantly increased | concentration above which Ca2+ current was suppressed ([4]; room temperature): exceeded 100 nM
SMILES: COc1cc(O)c(CC=C(C)C)c(O)c1C(=O)/C=C/c1ccc(O)cc1 [xanthohumol]
time to suppression of aberrant cellular Ca2+ transients (rat ventricular myocytes [2]; 30 nM, electrically stimulated 1 Hz, 25° C.): < 10 s | peak ΔF/F0, F0, or decay time constant (Tau) of electrically triggered Ca2+ transients (rat ventricular myocytes [2]; 100 nM, 35° C.): without modifying | spontaneously triggered beats induced by rapid electrical stimulation (rat ventricular myocytes [2]; 100 nM, 35° C.): suppressed significantly | frequency of spontaneously triggered Ca2+ oscillations (rat ventricular myocytes [2]; 1.5 mM K+, xanthohumol 50 nM): markedly reduced | concentrations over which Tau was significantly reduced (rat ventricular myocytes [2]; 0.5 Hz, 35° C. (FIG. 12 C)): over 300 nM | toxic concentrations (rat ventricular myocytes [2]; 35° C., electrically stimulated cells): about 1 mM | increase in Ca2+-transient peaks following a 30-second train of high-frequency stimulation (rat ventricular myocytes [2]; 50-100 nM xanthohumol, n=4): 12.14%±2.662 | normalized ΔF or F0 (rat ventricular myocytes [2]; 50-100 nM, 35° C., 0.5 Hz, statistically insignificant): slight increase | aberrant secondary Ca2+ release events (rat ventricular myocytes [2]; [8]): blocks | amplitude of electrically stimulated cellular Ca2+ transients (rat ventricular myocytes [2]; [8]): without decreasing | time for effects of xanthohumol to start to develop (rat ventricular myocytes [2]; continuous recordings (FIG. 9)): less than 10 seconds | Tau of relaxation (rat ventricular myocytes [2]; range of 10-300 nM, 35° C.): without much change | isoproterenol-triggered spontaneous events (rat ventricular myocytes [2]; [9]): strong suppression | various parameters of Ca2+ transients (ΔF/F0, F0, Tau) (rat ventricular myocytes [2]; [9]): without having a significant effect | increase in Ca2+-transient peaks following a 30-second train of high-frequency stimulation (rat ventricular myocytes [2]; xanthohumol and isoproterenol (100 nM)): 5.002%±0.6667 | effect on DCF signal after washout ([1]; after xanthohumol 50 nM): persisted even after washout | low K+ solution-induced increase of the DCF signal ([1]; xanthohumol 50 nM, low K+ 5.4→1.5 mM): effectively suppressed | slope of ROS-dependent DCF fluorescence signal (baseline ROS production) ([1]; xanthohumol 50 nM, uncompensated and background-compensated signal): reduced the slope | modulatory effect on the uptake kinetics (Tau) following Ca2+ release by caffeine (rat ventricular myocytes [3]; in presence of xanthohumol (50 nM)): completely suppressed | fractional Ca2+ release (ΔFStim/ΔFCaff) (rat ventricular myocytes [3]; xanthohumol 50 nM, 0.5 Hz, 35° C.): not influenced; also recorded: not significantly reduced | rate of refilling of the SR (rat ventricular myocytes [3]; xanthohumol 50 nM, after caffeine depletion): significantly reduced | ΔF/F signal of caffeine-induced Ca2+ release (total Ca2+ content of the SR) (rat ventricular myocytes [3]; xanthohumol 50 nM, caffeine 2.5 mM 1 second, 0.5 Hz, 35° C.): significantly reduced | reduction of peak of the triggered Ca2+ transient (rat ventricular myocytes [3]; xanthohumol 50 nM, paced at 0.5 Hz): 22.66% | diastolic Ca2+ levels (rat ventricular myocytes [3]; xanthohumol 50 nM, statistically insignificant): slight increase | frequency of Ca2+ sparks evoked by withdrawal of extracellular K+ (rat ventricular myocytes [5]; 50 nM): markedly decreased | time to reduction of spark frequency after application (rat ventricular myocytes [5]; acute 10 nM): ≤ 2 min | spontaneous Ca2+ spark frequency (rat ventricular myocytes [5]; acute 10 nM, control cells with high baseline spark frequency, 5.4 mM K+): consistently reduced | spontaneously developed Ca2+ oscillations or sparks (rat ventricular myocytes [5]; incubated 30 minutes in 10 nM, 5.4 mM K+): scarce | frequency of sparks/Ca2+ oscillations on reduction of K+ versus non-incubated cells (rat ventricular myocytes [5]; incubated 30 minutes in 10 nM, K+-free solutions, p<0.005): significantly lower | Ca2+ transients (rat ventricular myocytes [6]; 10 nM, room temperature): significantly suppressed | concentrations above which significant effects on ΔF/F or rate of decay occurred (rat ventricular myocytes [6]; 35° C.): exceeding 300 nM | concentrations above which relaxation of Ca2+ transients was slowed and peak suppressed (rat ventricular myocytes [6]; room temperature, P<0.001): exceeding 50 nM
